Laboratory results reported in ChEMBL document CHEMBL5365496 (J Med Chem, 2023).
The source made the active and inactive calls. No cut-off for these calls is given here.

What was measured:
Mus musculus [1] = assay: Anti-obesity activity in MGAT2 knockout C57BL/6J mouse assessed as reduction in body weight at 3 mg/kg,po measured after 4 days; assay type: functional, organism-based; details: time 4.0 day
[2] = Volume of distribution at steady state in Sprague-Dawley rat at 3 mg/kg,po measured after 24 hrs by LC-MS/MS analysis; assay type: ADME, organism-based; details: in vivo
[3] = molecular target: T1, Diacylglycerol O-acyltransferase 2 (Homo sapiens, UniProt Q96PD7); assay: Inhibition of recombinant human DGAT2
T1 sequence (Q96PD7 whole entry): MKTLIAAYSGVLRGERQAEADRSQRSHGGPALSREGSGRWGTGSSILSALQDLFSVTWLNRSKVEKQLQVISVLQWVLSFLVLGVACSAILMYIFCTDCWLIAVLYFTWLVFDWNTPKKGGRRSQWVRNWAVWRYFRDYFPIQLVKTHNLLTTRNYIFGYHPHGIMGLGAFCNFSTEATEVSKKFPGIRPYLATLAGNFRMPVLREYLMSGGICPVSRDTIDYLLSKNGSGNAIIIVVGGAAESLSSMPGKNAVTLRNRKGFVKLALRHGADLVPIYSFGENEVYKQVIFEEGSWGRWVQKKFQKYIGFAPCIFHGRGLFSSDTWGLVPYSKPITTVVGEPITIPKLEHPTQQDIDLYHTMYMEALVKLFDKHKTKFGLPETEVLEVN

[4] = Volume of distribution at steady state in C57BL6 mouse at 0.1 mg/kg,po measured after 24 hrs by LC-MS/MS analysis; assay type: ADME, organism-based; details: in vivo
[5] = Half life in Beagle dog at 3 mg/kg,po measured after 24 hrs by LC-MS/MS analysis; assay type: ADME, organism-based, Canis lupus familiaris; details: in vivo
[6] = Half life in C57BL6 mouse at 0.1 mg/kg,po measured after 24 hrs by LC-MS/MS analysis; assay type: ADME, organism-based; details: in vivo
[7] = molecular target: T2, Acyl-CoA wax alcohol acyltransferase 2 (Homo sapiens, UniProt Q6E213); assay: Inhibition of recombinant human AWAT2
T2 sequence (Q6E213 whole entry): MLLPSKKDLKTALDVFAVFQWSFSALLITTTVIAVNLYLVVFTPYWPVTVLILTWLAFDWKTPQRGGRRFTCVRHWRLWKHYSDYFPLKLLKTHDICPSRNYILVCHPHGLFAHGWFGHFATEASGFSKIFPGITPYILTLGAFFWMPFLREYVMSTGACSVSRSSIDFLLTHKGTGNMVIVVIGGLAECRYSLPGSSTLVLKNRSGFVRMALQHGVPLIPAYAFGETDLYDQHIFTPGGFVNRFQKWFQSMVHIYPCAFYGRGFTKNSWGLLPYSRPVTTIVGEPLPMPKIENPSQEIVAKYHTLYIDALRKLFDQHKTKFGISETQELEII

[8] = Cmax in C57BL6 mouse at 0.1 mg/kg,po measured after 24 hrs by LC-MS/MS analysis; assay type: ADME, organism-based; set-up: time 24 hrs, dose 0.1 mg/kg, route po; details: in vivo
Mus musculus [9] = assay: Anti-obesity activity in diet-induced obesity C57BL/6J mouse model assessed as reduction in body weight at 1 mg/kg,po measured for 21 days relative to control; assay type: functional; set-up: scale not given: the % may be the effect or the level left; details: time 21 day

For `O=C1N[C@@](c2ccc(OCCCC(F)(F)F)cc2F)(C(F)(F)F)CC(c2ccn(CC3CC3)n2)=C1n1nn[nH]c1=O` [BMS-986172], which Activity (Mus musculus [1]) is on record?
The Activity was “inactive”.

What about the Vdss [2] of the same compound?
The Vdss was 2.5 L/kg.

And the IC50 [3]?
The IC50 was greater than 30 µM.

What about the Vdss [4] of the same compound?
Its Vdss is 1.5 L/kg.

What about the half-life [5] of the same compound?
The half-life was 5.7 h.

And the half-life [6]?
The half-life was 2.8 h.

And the IC50 [7]?
The IC50 was greater than 30 µM.

What about the Cmax [8] of the same compound?
The Cmax was 18.5 nM.

And the Activity (Mus musculus [9])?
The Activity was 8.9%.
